Measured values published in patent publication EP2014287A1, “Use of cinnamic acid derivatives as modulators of an EP2 receptor” (Bayer Schering Pharma Aktiengesellschaft, priority 2007, dated 2009).
pIC50: −log10 of the molar value.

Experiments:
Kumulus-Eizell Komplexe = experiment: cumulus expansion test in vitro; format: cell-based, Mäusen; details: in competition with PGE2
From the text: In immaturen weiblichen Mäusen (Stamm : CD1 (ICR) von Charles River) wird in einem Alter von 14-18 Tagen die Follikulogenese durch eine einmalige Gabe (intraperitoneal) von 10 I.E. PMSG (Pregnant Mare Serum Gonadotropine; Sigma G-4877, Lot 68H0909) induziert. 47 - 50 Stunden nach der Injektion werden die Ovarien entnommen und die Kumulus-Eizell Komplexe entnommen. Der Kumulus Komplex ist in diesem Stadium noch nicht expandiert. Die Kumulus-Eizell Komplexe werden nun für 20 - 24 Stunden mit Prostaglandin E2 (PGE2) (0,3 µM), Vehikel Kontrolle (Ethanol) oder Testsubstanzen inkubiert. Medium: alpha- MEM Medium mit 0,1 mM IBMX, Pyruvate (0,23 mM) Glutamine (2 mM), Pen/Strep 100 IU/ml Pen. und 100 µg/ml Strep.) und HSA (8 mg/ml)). Danach wird die Kumulus Expansion durch die Einteilung in vier Stadien (nach Vanderhyden et al. Dev Biol. 1990 Aug;140(2):307-317) festgestellt. Tabelle 1: Beispiel für die biologische Wirksamkeit der erfindungsgemäßen Verbindungen (gemessen mittels cAMP Antagonismustest): […]

[1] = target: T1, humanen Prostaglandin E2 (Subtyp EP2) Rezeptor (Homo sapiens, UniProt P43116); experiment: cAMP antagonism test (HTRF cAMP detection, in presence of PGE2); format: cell-based; details: cAMP Antagonismustest, read-out: Antagonismus [IC50
T1 construct: host or cells: cells in a culture plate
T1 sequence (P43116 whole entry): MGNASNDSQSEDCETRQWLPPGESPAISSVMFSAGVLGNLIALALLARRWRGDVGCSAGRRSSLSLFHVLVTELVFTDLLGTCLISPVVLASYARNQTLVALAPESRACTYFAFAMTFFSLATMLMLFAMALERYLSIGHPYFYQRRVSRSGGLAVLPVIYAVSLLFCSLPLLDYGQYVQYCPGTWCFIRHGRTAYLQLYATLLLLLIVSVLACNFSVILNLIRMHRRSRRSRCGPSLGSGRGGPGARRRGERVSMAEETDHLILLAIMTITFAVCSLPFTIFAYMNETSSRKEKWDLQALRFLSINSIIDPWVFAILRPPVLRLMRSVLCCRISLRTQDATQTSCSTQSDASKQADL
From the text: Die Bindung von PGE2 an den EP2-Subtyp des humanen PGE2-Rezeptors induziert die Aktivierung membranständiger Adenylatzyklasen und führt zur Bildung von cAMP. In Gegenwart des Phosphodiesteraseinhibitors IBMX wird das durch diese Stimulation akkumulierte und mittels Zell-Lyse freigesetzte cAMP in einem kompetitiven Nachweisverfahren eingesetzt. In diesem Test konkurriert das cAMP im Lysat mit cAMP-XL665 um die Bindung eines Eu-Kryptat markierten Anti-cAMP Antikörpers. Dabei entsteht in Abwesenheit von zellulärem cAMP ein maximales Signal, welches auf der Kopplung dieses Antikörpers an das cAMP-XL665 Molekül beruht. Dadurch entsteht nach Anregung bei 337 nm ein auf FRET (fluorescence resonance energy transfer) basierendes, lang anhaltendes Emissionssignal bei 665 nm (und bei […]). Beide Signale werden in einem geeigneten Messgerät zeitlich versetzt, d.h. nach Abklingen der Hintergrundsfluoreszenz gemessen. Jegliche Erhöhung des durch Prostglandin-E2-Gabe bedingten niedrigen FRET-Signals (gemessen als Well-Ratio-Veränderung = Emission665nm/Emission620nm * 10000) zeigt die Wirkung von Antagonisten.
Die in einer Testplatte und 30 % DMSO vorgelegten Substanzlösungen (0.75 µl) werden in 16 µl einer KRSB+IBMX-Stimulationslösung gelöst (1 X Krebs-Ringer Bicarbonate Buffer; Sigma-Aldrich # K-4002; inklusive 750 µM 3-Isobutyl-1-methylxanthine Sigma-Aldrich # I-7018), anschließend werden 15 µl davon in eine medienfreie Zellkulturplatte überführt, die kurz zuvor mit KRSB gewaschen worden war. Nach einer 30-minütigen Vorinkubation bei Raumtemperatur (RT) werden 5 µl einer 4xPGE2 Lösung (11 nM) zugegeben und in Gegenwart des Agonisten für weitere 60 min bei RT inkubiert (Volumen: - 20 µl), bevor die Reaktion anschließend durch Zugabe von 5 µl Lysispuffer gestoppt und für weitere 20 min bei RT inkubiert wird (Volumen: - 25 µl). Das Zell-Lysat wird anschließend in eine Messplatte überführt und entsprechend den Herstellerangaben (cyclic AMP kit Cisbio International # 62AMPPEC) gemessen.

[2] = target: T1, humanen Prostaglandin E2 (Subtyp EP2) Rezeptor; experiment: cellular agonism test (HTRF cAMP detection, without PGE2); format: cell-based

Row | SMILES | Unterdrückung der Kumulus Expansion (Kumulus-Eizell Komplexe; 100 - 200 µM) | pIC50 [1] | Wirkung im zellulären Agonismustest [2] | Unterdrückung der Kumulus Expansion (Kumulus-Eizell Komplexe; 10 µM)
1 | CC(C)Oc1ccc2c(=O)c3cc(C(=O)O)ccc3oc2c1 [AH 6809, reference compound] | ca. 30% | – | – | –
2 | CCOc1cccc(CCC(=O)NCCc2c(C)[nH]c3c(F)ccc(C)c23)c1 [Beispiel 7, 3-(3-Ethoxyphenyl)-N-[2-(7-fluoro-2,4-dimethyl-1 H-indol-3-yl)-ethyl]-propionamid] | – | 5.92 | – | –
3 | Cc1[nH]c2c(F)ccc(C)c2c1CCNC(=O)CCc1ccc(F)cc1 [Beispiel 9, N-[2-(7-Fluoro-2,4-dimethyl-1 H-indol-3-yl)-ethyl]-3-(4-fluorophenyl)-propionamid] | – | 5.82 | keine Inhibition | 20%
4 | Cc1[nH]c2c(F)ccc(C)c2c1CCNC(=O)/C=C/c1cc(F)cc(F)c1 [Beispiel 20, (E)-3-(3,5-Difluorphenyl)-N-[2-(7-fluor-2,4-dimethyl-1 H-indol-3-yl)-ethyl]-acrylamid] | – | 6.08 | – | –
